{"source": "patent US11433042B2", "about": "“Methods and compositions for treating metabolic disorders” (Joslin Diabetes Center, Inc., priority 2017, dated 2022)", "key": {"[1]": {"test": "Oral lipid tolerance test", "assay_type": "in vivo", "settings": "mice given an oral bolus of triglyceride, serum triglyceride"}, "WT-1 brown adipocytes": {"tested_on": "WT-1 brown adipocytes", "test": "Seahorse Bioanalyzer oxygen consumption", "assay_type": "cell-based", "procedure": "WT-1 brown preadipocytes were seeded onto gelatin coated Seahorse Plates and differentiated according to standard protocols. Cells were starved for 1 h, then treated for 15 min with 1 μM 12,13-diHOME or methyl acetate vehicle. The oxygen consumption rates (OCR) were monitored in 200 μM palmitic acid plus 100 μM albumin in a Seahorse XF24 instrument using the standard protocol of 3 min mix, 2 min wait, and 3 min measure. For the normalization of respiration to protein content, cells were lysed in RIPA buffer and protein concentration was measured using the Pierce BCA kit (Life Technologies)."}, "[2]": {"test": "Daily injections of 12,13-diHOME in diet-induced obese mice", "assay_type": "in vivo", "procedure": "For the experiments with daily injections of 12,13-diHOME, mice were fed with a high-fat diet containing 60 kcal % fat (Research Diets Stock no. D12492) for 16 weeks prior to treatment and during the course of the experiment. Mice were first injected intraperitoneally daily with 1 ug/kg body weight, 12,13-diHOME in 0.1% BSA w/v in PBS or vehicle and body for one week, then injected every day with 10 ug/kg body weight two weeks. For all experiments, serum was collected and triglycerides were measured using a standard enzymatic assay (ZenBiosystems). Non-esterified FA were also measured with a colorimetric assay (Wako Chemicals USA). High-density and low-density lipoprotein fractions were isolated and cholesterol was measured with a colorimetric assay (Abcam). All mice were allowed ad libitum access to water and food."}, "BAT": {"tested_on": "BAT", "test": "In vivo bioluminescent fatty acid uptake (FFA-SS-Luc) in UCP1cre+/− Rosa(stop)Luc+/− mice", "settings": "1 ug/kg, compared to vehicle", "procedure": "For in vivo bioluminescent fatty acid uptake experiments, UCP1cre^+/- mice (Stock no. 024670) were bred with Rosa(stop)Luc^+/+ (Stock no. 005125), both obtained from The Jackson Laboratory. Male offspring carrying the UCP1-cre allele were injected retro-orbitally with 1 ug/kg body weight 12,13-diHOME in 0.1% BSA PBS or vehicle, and all mice were co-injected with 2 μm FFA-SS-Luc ([…] Medical). Mice were anesthetized with isofluorane and imaged using the IVIS Spectrum CT using sequential 30 s exposures for 1 hour. Data was analyzed using Living Image Software and movies were assembled from individual images using ImageJ."}, "mature brown adipocytes": {"tested_on": "mature brown adipocytes", "test": "In vitro fatty acid uptake (FFA-SS-Luc) in brown adipocytes constitutively expressing luciferase", "assay_type": "cell-based, mice", "settings": "1 μM for 15 minutes, 10 μM FFA-SS-Luc", "procedure": "Stromal vascular cells were isolated from interscapular brown adipose tissue dissected from TgLuc mice (Stock no. 008450) obtained from The Jackson Laboratory. Cells were immortalized and differentiated into adipocytes in vitro according to the WT-1 protocol (Tseng, Y. H. et al., Mol. Cell Biol. 24, 1918-1929 (2004)). After 1 hour of serum starvation, mature adipocytes were treated with 1 μM 12,13-diHOME or methyl acetate vehicle in 0.1% w/v BSA in PBS for 15 minutes. After this treatment, cells were incubated with 10 μm FFA-SS-Luc (Intrace Medical) and imaged using the IVIS Spectrum CT using sequential 30 s exposures for 1 hour. Data was analyzed using Living Image Software and movies were assembled from individual images using ImageJ. All cultures were confirmed to be Mycoplasma free."}, "[3]": {"settings": "diet-induced obese mice, daily for 2 weeks at 10 μg/kg body weight"}, "[4]": {"settings": "obese mice, chronic treatment (i.e., one week)"}}, "data": [{"smiles": "CCCCCC(O)C(O)C/C=C\\CCCCCCCC(=O)O", "note": "(stereo not drawn) [12,13-diHOME, 12,13-dihydroxy-9Z-octadecenoic acid]", "values": [{"measurement": "oral lipid tolerance", "setting": "[1]", "result": "improved"}, {"measurement": "basal respiration", "setting": "WT-1 brown adipocytes; 1 μM for 15 min", "result": "significantly increased"}, {"measurement": "maximal respiratory capacity", "setting": "WT-1 brown adipocytes; data not shown", "result": "no effect"}, {"measurement": "uncoupling", "setting": "WT-1 brown adipocytes; data not shown", "result": "no effect"}, {"measurement": "body weight", "setting": "[2]; [3]", "result": "no effect"}, {"measurement": "circulating non-esterified FA", "setting": "[2]; [3]", "result": "no effect"}, {"measurement": "circulating triglyceride levels", "setting": "[2]; [3]", "result": "significantly decreased"}, {"measurement": "glucose tolerance", "setting": "[2]; [3]", "result": "no effect"}, {"measurement": "body weight", "setting": "[2]; [4]", "result": "without alteration"}, {"measurement": "circulating triglyceride", "setting": "[2]; [4]", "result": "significant reduction"}, {"measurement": "luminescent signal in BAT (brown adipocyte FA uptake)", "setting": "BAT", "result": "significantly increased"}, {"measurement": "FFA-SS-Luc uptake in vitro", "setting": "mature brown adipocytes", "result": "significantly increased"}]}]}
